US8334409B2, “Process for purifying rasagiline base” (Teva Pharmaceutical Industries, Ltd., priority 2008, dated 2012)

Tests used:
[1] = low levels of volatiles (water and residual solvents) by KF and TGA
[2] = alcohols, acetone, ethyl acetate, toluene, diethyl ether, dioxane, hexane and n-heptane

hygroscopicity [1]: not hygroscopic | solubility in polar and non-polar organic solvents [2]: freely soluble
SMILES: C#CCN[C@@H]1CCc2ccccc21 [rasagiline base, R(+)-N-propargyl-1-aminoindan]
